Key:
BluE = target: T1, BluE (Rhodobacter capsulatus, UniProt D5AV17); experiment: crude enzyme kinase assay, LC-MS of L-threonine phosphate; also in vivo HPLC; type: biochemical
T1 construct: gene RCAP_rcc02055

CobB = CobB (Rhodobacter capsulatus, UniProt O68108); experiment: in vitro amidation, LC-MS of HBAD; type: biochemical
purified protein = substrate: C[C@@H](OP(=O)(O)O)[C@H](N)C(=O)O; experiment: purified protein; conditions: pH 6.8 PIPES, 37 °C, 500 µM pyridoxal phosphate (standard assay), substrate taken from the assay description

T1 sequence (D5AV17 entry or part of it): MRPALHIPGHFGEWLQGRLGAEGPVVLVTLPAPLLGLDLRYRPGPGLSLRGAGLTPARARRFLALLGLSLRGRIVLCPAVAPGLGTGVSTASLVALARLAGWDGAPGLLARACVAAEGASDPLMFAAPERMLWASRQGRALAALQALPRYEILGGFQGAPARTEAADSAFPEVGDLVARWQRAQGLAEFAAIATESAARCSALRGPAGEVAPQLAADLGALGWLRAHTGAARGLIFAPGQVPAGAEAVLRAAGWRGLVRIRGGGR
CobB, sequence (O68108 whole entry): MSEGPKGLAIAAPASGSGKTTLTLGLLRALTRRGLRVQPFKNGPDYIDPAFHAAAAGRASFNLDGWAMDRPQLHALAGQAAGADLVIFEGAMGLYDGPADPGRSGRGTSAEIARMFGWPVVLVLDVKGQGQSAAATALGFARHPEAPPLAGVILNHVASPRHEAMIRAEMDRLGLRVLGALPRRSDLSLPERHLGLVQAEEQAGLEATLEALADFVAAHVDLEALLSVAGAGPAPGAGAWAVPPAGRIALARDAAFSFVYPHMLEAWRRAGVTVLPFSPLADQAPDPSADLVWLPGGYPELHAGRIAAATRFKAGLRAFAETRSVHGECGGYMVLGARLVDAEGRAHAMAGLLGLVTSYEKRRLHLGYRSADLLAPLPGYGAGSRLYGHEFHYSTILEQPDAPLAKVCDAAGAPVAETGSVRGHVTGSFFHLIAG

C[C@@H](O)[C@H](N)C(=O)O [L-threonine]
crude enzyme kinase assay, LC-MS of L-threonine phosphate; also in vivo HPLC (BluE): crude BluE activity was confirmed via an in vitro assay

C/C1=C2N=C(/C=C3\N/C(=C(/C)C4=NC(C)(C5N=C1C(C)(CCC(=O)O)C5CC(=O)O)C(C)(CC(=O)O)C4CCC(=O)O)C(C)(CC(=O)O)C3CCC(=O)O)C(C)(C)C/2CCC(=O)O (stereo not drawn) [hydrogenobyrinic acid]
in vitro amidation, LC-MS of HBAD (CobB): it was completely converted to HBAD by CobB enzyme from R. capsulatus in vitro

B1: RcCobC (Rhodobacter capsulatus SB 1003) (protein)
chain: MRDHGGNSDAARAQYGGEDWIDLSTGINRQPWPVPDLPAHVWTDLPTATAKAALLDAAAAAFGTPAPGVALAGAQQAIQLIPRLWAPGRARVLGPTYNEHAAALRAAGWQVEEVSTLGALAGADLAVVVNPNNPDGQRHPAAALRALSLQVGRLVVDESFADASPAASVTAKASRRMLVLRSFGKFYGLAGLRLGFVFADAATVAALSEMAGPWPVSGPALEIGRRALLDRNWAMATALRLGAETMRMDALAARAGWRLVGGTALFRTYATPDAAAAQDHLARARIWSRVFPYAADWLRLGLPGNESEWMRLEKALTNEL
Km (purified protein): 1890 µM

From paper PMC6249242, “Metabolic engineering of Escherichia coli for de novo biosynthesis of vitamin B12” (Nature Communications, 2018)
